Assay results as given in patent US20060020029A1, “Pharmaceutical compositions from ethnobotanicals” (priority 2004, published 2006).
≈ marks a conversion by molar mass, not a printed value. Where “and” joins values, the source holds several entries; their conditions need not be identical. Equal entries are not always repeated.

How the values were obtained:
[1] = Stability in methanol (HPLC); assay type: physicochemical
Description: The stability of 3,5 Dicaffeoyl-Quinic Acid (3,5-DCQA) was first evaluated in methanol. 3.8 mg 3,5-DCQA was dissolved in 0.2375 ml MeOH (conc.=16 mg/ml), and then diluted as ½, ¼ and ⅛ dilution, respectively. All samples were subjected to HPLC in 0 Day, 1 Day, 2 Day and 4 Day, and the Area% of 3,5-DCQA was calculated.

RSV (Long strain) = test: CPE assay, RSV-Long in Hep-2 cells; assay type: cell-based, respiratory syncytial virus; conditions: Hep-2 cells, CPE assay; for EC50: μM using the estimated FW-516
RSV-Long = test: Time of addition, CPE assay; assay type: cell-based, respiratory syncytial virus; conditions: for EC50, time of addition: Hep-2; for EC50: estimated FW-516
Description: Determine the Time of Addition for EB Fractions. […] This activity is related to the life cycle of the virus and the step in the cycle where the compounds act. In this example, experiments were performed to investigate the effect of the time of addition of EB fractionated products on anti-RSV activity.
Mechanism of action studies were performed as follows. Mechanism of action studies were performed using CJ4-16-4 in a CPE assay with Hep-2 cells.

[2] = system: Influenza A-Shangdong/09/93 (H3N2); test: CPE assay, influenza A specificity; assay type: cell-based, influenza type A
Description: (§1) To determine whether the fractions are specific RSV inhibitors rather than general antiviral agents, the inventors tested them against influenza type A/Shangdong/09/93 (H3N2), herpes simplex type 1 (MacItyre), and herpes simplex type 2 (MS) using the CPE assay system.
(§2) CJ4-16-4 was tested using influenza type A, herpes simplex virus type 1, and herpes simplex virus type 2 using the CPE assay with MDCK or Vero cells.

RSV B = test: CPE assay, RSV-B in Hep-2 cells; assay type: cell-based, respiratory syncytial virus
[3] = Stability in increasing concentrations of water (HPLC); assay type: physicochemical; conditions: for Area % of 3,5-DCQA (HPLC): Table 24 (in H2O)
Description: The rate of degradation of 3,5-DCQA was again tested in increasing concentrations of water. 5.4 mg 3,5-DCQA was dissolved in 0.266ml DMSO (conc.=20.3 mg/ml), and then diluted with water to ½, ¼ and ⅛ dilution, respectively. All samples were subjected on HPLC in 0 Day, 1 Day, 2 Day and 4 Day, and Area % of 3,5-DCQA was calculated.

[4] = system: Herpes simplex virus type 1 (MacIntyre strain); test: CPE assay, HSV-1 specificity; assay type: cell-based
Description: as §1, §2

[5] = system: Herpes simplex virus type 2 (MS-strain); test: CPE assay, HSV-2 specificity; assay type: cell-based
Description: as §1, §2

RSV-A2 = test: CPE assay, RSV-A2 in Hep-2 cells
Description: (§3) The cell line was propagated in MEM supplemented with 10% heat-inactivated fetal bovine serum (FBS) containing 100 μg/ml of antibiotics (streptomycin/penicillin). […] The overnight medium (MEM containing 10% FBS) was removed, and wells were rinsed twice with 1× phosphate buffer saline (PBS, 200 μl) before adding 10×TCID50 of RSV suspension in fresh medium (MEM plus 2% FBS) to each well, except for cell only wells. […] CellTiter 96 Aqueous Non-Radioactive Cell Proliferation Assay (Promega) was used to monitor the antiviral activity following the manufacturer's instruction. After incubation, the cells were rinsed twice with 200 μl of 1×PBS prior to the addition of 100 μl of fresh medium (MEM plus 10% FBS). […] The extent of cell viability was measured at 490 nm using an ELISA reader, and the absorbance was used to calculate percent inhibition. Antiviral activity of each EB fraction or ribavirin is expressed as IC50, which represents the concentration of the test substance required to reduce the virus infection (as measured by the destruction of the host cells) by 50%.
(§4) Hep-2 cells were used in the CPE assay to determine anti-RSV properties.

RSV-A6 57754 = test: CPE assay, RSV-A6 57754 in Hep-2 cells
Description: as §3, §4

MDCK cells = test: Cytotoxicity in MDCK cells
[6] = system: RSV-Long (Cotton Rat adapted strain); test: CPE assay, RSV-Long cotton rat adapted strain; assay type: cell-based, respiratory syncytial virus
RSV A2 = test: Cotton rat RSV infection model, pulmonary titer; conditions: for RSV Pulmonary Titer Mean ± SD / RSV Pulmonary Titer in individual CR (A-D): harvest day 4
Description: All groups consisted of four randomly selected cotton rats. All test materials were administered intraperitoneally with once daily dosing. The placebo group was administered distilled water at volumes and schedules identical to the other groups receiving investigational test articles. In general, timing of administration of ribavarin to the ribavarin-treated group paralleled that of the other treatment groups except that initiation of dosing was on Day 1 for Experiments 1 and 2 and Day 0 for Experiment 3. The dose of ribavarin was 90 mg/kg/day in Experiments 1 and 3 and 180 mg/kg/day in Experiment 2. All animals were inoculated intranasally with approximately 100 median cotton rat infectious doses (CRID50) of RSV A2 on Day 0. Experiments were terminated on either Day 3 or 4 post-infection. […] On the day that the experiment was terminated, all CRs were sacrificed using CO2 to asphyxiate the animals. The lungs from the animals were subsequently removed. The lungs of sacrificed animals were removed, rinsed in sterile phosphate-buffered saline (PBS; pH 7.2) and weighed. Each set of lungs was then transpleurally lavaged using 3 ml of 2% FCS-MEM media. The resulting lung fractions were kept on ice until they were assayed for RSV. The lung fractions of animals from each group were tested for the levels of RSV present.

[7] = CPE assay with MDCK or Vero cells
[8] = 12.5 mg/kg/day B.I.D i.p. D0-D3, 50% DMSO
[9] = 25 mg/kg/day B.I.D i.p. D0-D3, 50% DMSO

With `O=C(/C=C/c1ccc(O)c(O)c1)OC1CC(O)(C(=O)O)CC(OC(=O)/C=C/c2ccc(O)c(O)c2)C1O` (centres unmarked) [CJ4-16-4, 3,5-di-O-caffeoylquinic acid] the CC50 (Hep-2 cells) was > 400000 nM, the “CC50, Hep 2” value (Hep-2 cells) was > 200 µg/mL and the “cytotoxicity in Hep-2 cells (in words)” value (Hep-2 cells) was “no significant cytotoxicity”. For the same compound, the “Area % of 3,5-DCQA (HPLC)” value ([1]; Stock (16 mg/ml), 0 Day) was 97.40 Area%, the “Area % of 3,5-DCQA (HPLC)” value ([1]; Stock (16 mg/ml), 1 Day) was 97.16 Area% and the “Area % of 3,5-DCQA (HPLC)” value ([1]; Stock (16 mg/ml), 2 Day) was 96.42 Area%. The “Area % of 3,5-DCQA (HPLC)” value ([1]; Stock (16 mg/ml), 4 Day) was 95.39 Area%, the “Area % of 3,5-DCQA (HPLC)” value ([1]; ¼ dilution, 2 Day) was 96.65 Area% and the “Area % of 3,5-DCQA (HPLC)” value ([1]; ¼ dilution, 4 Day) was 95.88 Area%. The “Area % of 3,5-DCQA (HPLC)” value ([1]; ½ dilution, 2 Day) was 97.03 Area%, the “Area % of 3,5-DCQA (HPLC)” value ([1]; ½ dilution, 4 Day) was 95.66 Area% and the “Area % of 3,5-DCQA (HPLC)” value ([1]; ⅛ dilution, 0 Day) was 97.32 Area%. For the same compound, the “Area % of 3,5-DCQA (HPLC)” value ([1]; ⅛ dilution, 1 Day) was 96.84 Area%, the “Area % of 3,5-DCQA (HPLC)” value ([1]; ⅛ dilution, 2 Day) was 94.44 Area% and the “Area % of 3,5-DCQA (HPLC)” value ([1]; ⅛ dilution, 4 Day) was 94.27 Area%. For the same compound, the “EC50, RSV-Long” value (RSV (Long strain)) was 0.035 µg/mL (≈ 0.0678 µM), the EC50 (RSV (Long strain)) was 0.068 µM and the EC50 (RSV (Long strain); listed as 3,5 dicaffeoyl-quinic acid) was ~0.068 µM. For the same compound, the EC50 (RSV (Long strain); listed as IV) was 0.068 µM, the “EC50, time of addition” value (RSV-Long; 0-Hr-Post-infection) was 0.051 µg/mL and the EC50 (RSV-Long; 0-Hr-Post-infection) was 99 nM. For the same compound, the “EC50, time of addition” value (RSV-Long; 2-Hr-Post-infection) was 0.036 µg/mL, the EC50 (RSV-Long; 2-Hr-Post-infection) was 70 nM and the “EC50, time of addition” value (RSV-Long; 4-Hr-Post-infection) was 0.039 µg/mL. For the same compound, the EC50 (RSV-Long; 4-Hr-Post-infection) was 76 nM, the “EC50, time of addition” value (RSV-Long; 6-Hr-Post-infection) was 0.043 µg/mL and the EC50 (RSV-Long; 6-Hr-Post-infection) was 83 nM. The “EC50, time of addition” value (RSV-Long; 8-Hr-Post-infection) was 0.039 µg/mL, the EC50 (RSV-Long; 8-Hr-Post-infection) was 76 nM and the “EC50, time of addition” value (RSV-Long; 24-Hr-Post-infection) was 0.069 µg/mL. For the same compound, the EC50 (RSV-Long; 24-Hr-Post-infection) was 130 nM, the “activity against Influenza A (in words)” value [2] was “inactive” and the “EC50, Influenza A-Shangdong/09/93 (H3N2)” value [2, 7] was > 50 µg/mL. The EC50 ([2]; μM using the estimated FW-516) was > 100 µM, the “EC50, RSV-B (Washington)” value (RSV B; Hep-2 cells, CPE assay) was 0.086 µg/mL (≈ 0.167 µM) and the EC50 (RSV B; μM using the estimated FW-516, read-out: EC50, RSV-B (Washington)) was 0.167 µM. The “Area % of 3,5-DCQA (HPLC)” value ([3]; Stock (20.3 mg/ml), 0 Day) was 97.05 Area %, the “Area % of 3,5-DCQA (HPLC)” value ([3]; Stock (20.3 mg/ml), 1 Day) was 96.09 Area % and the “Area % of 3,5-DCQA (HPLC)” value ([3]; Stock (20.3 mg/ml), 2 Day) was 93.94 Area %. The “Area % of 3,5-DCQA (HPLC)” value ([3]; Stock (20.3 mg/ml), 4 Day) was 91.90 Area %, the “Area % of 3,5-DCQA (HPLC)” value ([3]; ¼ dilution with water, 1 Day) was 92.79 Area % and the “Area % of 3,5-DCQA (HPLC)” value ([3]; ¼ dilution with water, 2 Day) was 91.06 Area %. The “Area % of 3,5-DCQA (HPLC)” value ([3]; ¼ dilution with water, 4 Day) was 88.14 Area %, the “Area % of 3,5-DCQA (HPLC)” value ([3]; ½ dilution with water, 1 Day) was 94.62 Area % and the “Area % of 3,5-DCQA (HPLC)” value ([3]; ½ dilution with water, 2 Day) was 92.71 Area %. The “Area % of 3,5-DCQA (HPLC)” value ([3]; ½ dilution with water, 4 Day) was 90.20 Area %, the “Area % of 3,5-DCQA (HPLC)” value ([3]; ⅛ dilution with water, 0 Day) was 96.91 Area % and the “Area % of 3,5-DCQA (HPLC)” value ([3]; ⅛ dilution with water, 1 Day) was 92.60 Area %. The “Area % of 3,5-DCQA (HPLC)” value ([3]; ⅛ dilution with water, 2 Day) was 89.02 Area %, the “Area % of 3,5-DCQA (HPLC)” value ([3]; ⅛ dilution with water, 4 Day) was 85.55 Area % and the “3,5-DCQA changed into 4,5-DCQA” value ([3]; fourth day in solution) was “over 11%”. For the same compound, the “activity against HSV-1 (in words)” value [4] was “inactive”, the “EC50, Herpes simplex virus type 1 (MacIntyre strain)” value [4, 7] was > 50 µg/mL and the EC50 ([4]; μM using the estimated FW-516) was > 100 µM. For the same compound, the CC50 (Vero cells) was > 400000 nM, the “CC50, Vero” value (Vero cells) was > 200 µg/mL and the “activity against HSV-2 (in words)” value [5] was “inactive”. For the same compound, the “EC50, Herpes simplex virus type 2 (MS-strain)” value [5, 7] was > 50 µg/mL, the EC50 ([5]; μM using the estimated FW-516) was > 100 µM and the “EC50, RSV-A2” value (RSV-A2; Hep-2 cells, CPE assay) was 0.084 µg/mL (≈ 0.163 µM). The EC50 (RSV-A2; read-out: EC50, RSV-A2, μM using the estimated FW-516) was 0.163 µM, the “EC50, RSV-A6 57754” value (RSV-A6 57754; Hep-2 cells, CPE assay) was 0.08 µg/mL (≈ 0.155 µM) and the EC50 (RSV-A6 57754; read-out: EC50, RSV-A6 57754, μM using the estimated FW-516) was 0.16 µM. The “CC50, MDCK” value (MDCK cells; isolated compounds) was > 200 µg/mL, the CC50 (MDCK cells; read-out: CC50, MDCK, μM using the estimated FW-516) was > 400 µM and the “EC50, RSV-Long (Cotton Rat adapted strain)” value ([6]; Hep-2 cells, CPE assay) was 1.4 µg/mL (≈ 2.71 µM). For the same compound, the EC50 ([6]; μM using the estimated FW-516) was 2.7 µM, the “inhibition of RSV infection in cotton rat model” value (RSV A2; 12.5 mg/kg/day) was “over one log” and the “RSV Pulmonary Titer Mean ± SD” value (RSV A2; [8]) was 3.3 ± 0.0 log10/g lung. The “RSV Pulmonary Titer in individual CR (A-D)” value (RSV A2; [8]) was 3.3 log10/g lung, the Reduction (RSV A2; 12.5 mg/kg/day B.I.D i.p. D0-D3, vs placebo) was 1.1 Log 10 and the “RSV Pulmonary Titer Mean ± SD” value (RSV A2; [9]) was 3.2 ± 0.3 log10/g lung. For the same compound, the “RSV Pulmonary Titer in individual CR (A-D)” value (RSV A2; [9]) was 2.8 log10/g lung and 3.3 log10/g lung (3×) and the Reduction (RSV A2; 25 mg/kg/day B.I.D i.p. D0-D3, vs placebo) was 1.2 Log 10.
